The values that follow come from patent US9272927B2, “Method for preventing growth of microorganisms, and a combination for the prevention of microbial growth” (KEMIRA, OYJ, priority 2006, dated 2016).

Common to all, as to format: cell-based
For assay [1], the system named is biofilm of a mixture of adherent bacteria (Deinococcus geothermalis, Pseudoxanthomonas taiwanensis and Meiothermus silvanus). Put plainly: Test for destructing a biofilm on stainless steel pegs, regrowth of new biofilm stained with safranin (Example 5). Further details: key: ++++: great amounts of biofilm were formed; ++: clearly reduced formation of the new biofilm, but not the complete inhibition thereof; −: completely inhibiting the new biofilm. The following applies: total contact time 3 hours. On the procedure:
A test for destructing a biofilm was performed as described in the document FI 117056 B (Kemira Oyj). A biofilm was pregrown on lidplates having stainless steel pegs (3 d, 45° C., agitation at 150 rpm.). Clear filtrate of a fine paper machine served as the water (pH 7.6, ORP 71 mV), while a mixture of adherent bacteria (Deinococcus geothermalis, Pseudoxanthomonas taiwanensis and Meiothermus silvanus) grown in the laboratory was used for inoculation. After identical biofilms were grown on all the pegs of the lids, the lids were removed from the clear filtrate used for cultivation, washed with tap water and placed on plastic plates with 12 wells, one peg per well. 3.5 ml of the clear filtrate from the same paper machine, and the biocides to be tested were added in advance to each well. The pegs with biofilms were first immersed into the wells for 15 minutes, followed by removal of the plates for a moment for the addition of the other components of the biocidal combinations to the wells. Exposure to biocides was continued to attain a total contact time of 3 hours. Then, viability of the biofilms was determined by transferring the peglids to fresh 12-well plates where each well contained 2 ml of sterile cultivation broth, followed by cultivating the plates for 19 hours at 45° C. while mixing at 150 rpm. […]

For assay [2], the system named is aerobic bacteria present in circulation water. Put plainly: Bactericidal test on circulation water from an alkaline fine paper machine, agar plate count (Example 6). Particulars: for killing of bacteria: 3 hours; for re-growth of bacteria: single biocide only, dosages that had yielded an efficient kill, within 1 day. The protocol:
Circulation water (pH 8.2, ORP+169 mV) was collected from an alkaline fine paper machine (producing uncoated copy paper) and divided in 11 plastic containers. When two different biocides were dosed in to same container, the peracid was dosed first, the sample mixed thoroughly, and the second biocide was added within 5 to 10 minutes. All biocide dosages are reported as ppm (mg/l) of the commercial product, for example 20 ppm of performic acid (PFA) equilibrium product equals about 2 ppm as performic acid active substance, 12 ppm of BCDMH product equals about 4 ppm as active chlorine and 30 ppm of MCDMH product equals about 3 ppm as active chlorine. After biocide dosing the containers were capped and incubated at paper machine temperature (45° C.) with continuous agitation. The killing efficacy of different biocide dosages was measured 3 hours and 1 day after the biocide dosing using agar plate count method (PCA agar, 45° C., and 2 days).

Assay [3] concerns aerobic bacteria present in broke. Put plainly: Bactericidal test on dilute broke of a board machine (Example 1). The following applies: BCDMH 30 ppm alone; contact time 24 hours. The protocol: Dilute broke of a board machine (pH 7.8, oxidation reduction potential (ORP) 40 mV) was divided into 10 separate jars, and biocides to be tested were dosed. Concentrations are expressed in ppm (mg/l) of the commercially available product. In tests where two different agents were dosed into a single jar, the jar was closed after the first pipetting, the broke sample was vigorously agitated, followed by the addition of the second agent during 5 to 10 minutes. Jars were incubated under conditions corresponding to those in the broke system (45° C., mixing), and thereafter, viable aerobic bacterial counts were determined by cultivation after exposure periods of 4 and 24 hours.
In this bactericidal test on broke, killing efficacy of BCDMH and ePAA used alone and in combinations were compared, two thirds of BCDMH being replaced in the combinations with peracetic acid used in threefold amounts. For instance BCDMH 10 ppm versus ePAA 30 ppm versus BCDMH 3.3 ppm+ePAA 20 ppm.
The combination “BCDMH 3.3 ppm+ePAA 20 ppm” means that BCDMH was added prior to ePAA.

Consider `CC1(C)C(=O)N(Cl)C(=O)N1Br` [BCDMH, bromochlorodimethyl hydantoin], for which the “formation of new biofilm” value in assay [1] (16 ppm of BCDMH alone) is listed as “++”. Moreover, the killing of bacteria entry in assay [2] (12 ppm of BCDMH alone) is listed as “most efficient”. Besides, the re-growth of bacteria entry in assay [2] is recorded as “active re-growth of bacteria had occurred”. In addition, the inhibition of regrowth entry in assay [3] was “inhibited more effectively by BCDMH 30 ppm than PAA alone”.

Turning to `CC1(C)C(=O)NC(=O)N1Cl` [MCDMH, monochlorodimethyl hydantoin], in assay [1] (60 ppm of MCDMH alone), the “formation of new biofilm” value is recorded as “++++”. In assay [2] (45 ppm of MCDMH alone), the killing of bacteria result is listed as “most efficient”. The re-growth of bacteria result in assay [2] was “active re-growth of bacteria had occurred”.
